{"source": "paper PMC7447754", "about": "(Nature Communications, 2020)", "key": {"SARS-CoV-2 [1]": {"system": "SARS-CoV-2"}, "H1N1 HA1 protein": {"molecular_target": "H1N1 HA1 protein (Influenza A virus, UniProt C3W5S1)", "sequence (C3W5S1 18-344 limits assumed)": "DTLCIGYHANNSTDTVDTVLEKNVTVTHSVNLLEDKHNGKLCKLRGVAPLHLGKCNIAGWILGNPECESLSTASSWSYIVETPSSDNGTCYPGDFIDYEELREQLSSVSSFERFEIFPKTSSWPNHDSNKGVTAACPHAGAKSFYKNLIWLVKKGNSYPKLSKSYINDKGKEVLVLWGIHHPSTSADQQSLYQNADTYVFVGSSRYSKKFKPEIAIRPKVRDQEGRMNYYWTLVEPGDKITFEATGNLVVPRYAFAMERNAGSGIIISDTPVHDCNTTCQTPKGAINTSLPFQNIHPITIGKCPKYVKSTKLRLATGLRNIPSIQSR"}, "physchem": {"experiment": "physchem", "details": "water"}, "parainfluenza virus 3": {"system": "parainfluenza virus 3", "details": "24 h, pH 7.4"}, "H1N1 virus [2]": {"system": "H1N1 virus"}, "[3]": {"system": "endosomal acidification in MDCK cells", "format": "cell-based, canine"}, "H1N1 virus [4]": {"system": "H1N1 virus", "remark": "listed apart in the source"}, "SARS-CoV-2 [5]": {"system": "SARS-CoV-2", "remark": "listed apart in the source"}, "SARS-CoV-2 [6]": {"system": "SARS-CoV-2", "format": "binding"}, "H1N1 virus [7]": {"system": "H1N1 virus", "remark": "listed apart in the source"}, "rhinovirus [8]": {"system": "rhinovirus"}, "[9]": {"system": "virus–host endosomal acidification in H1N1-infected MDCK cells", "format": "cell-based, canine"}, "SARS-CoV-2 [10]": {"system": "SARS-CoV-2", "details": "24 h, pH 7.4"}, "rhinovirus [11]": {"system": "rhinovirus", "format": "binding"}, "MERS-CoV S protein": {"molecular_target": "MERS-CoV S protein (Middle East respiratory syndrome-related coronavirus, UniProt K9N5Q8)", "sequence (K9N5Q8 18-1353 limits assumed)": "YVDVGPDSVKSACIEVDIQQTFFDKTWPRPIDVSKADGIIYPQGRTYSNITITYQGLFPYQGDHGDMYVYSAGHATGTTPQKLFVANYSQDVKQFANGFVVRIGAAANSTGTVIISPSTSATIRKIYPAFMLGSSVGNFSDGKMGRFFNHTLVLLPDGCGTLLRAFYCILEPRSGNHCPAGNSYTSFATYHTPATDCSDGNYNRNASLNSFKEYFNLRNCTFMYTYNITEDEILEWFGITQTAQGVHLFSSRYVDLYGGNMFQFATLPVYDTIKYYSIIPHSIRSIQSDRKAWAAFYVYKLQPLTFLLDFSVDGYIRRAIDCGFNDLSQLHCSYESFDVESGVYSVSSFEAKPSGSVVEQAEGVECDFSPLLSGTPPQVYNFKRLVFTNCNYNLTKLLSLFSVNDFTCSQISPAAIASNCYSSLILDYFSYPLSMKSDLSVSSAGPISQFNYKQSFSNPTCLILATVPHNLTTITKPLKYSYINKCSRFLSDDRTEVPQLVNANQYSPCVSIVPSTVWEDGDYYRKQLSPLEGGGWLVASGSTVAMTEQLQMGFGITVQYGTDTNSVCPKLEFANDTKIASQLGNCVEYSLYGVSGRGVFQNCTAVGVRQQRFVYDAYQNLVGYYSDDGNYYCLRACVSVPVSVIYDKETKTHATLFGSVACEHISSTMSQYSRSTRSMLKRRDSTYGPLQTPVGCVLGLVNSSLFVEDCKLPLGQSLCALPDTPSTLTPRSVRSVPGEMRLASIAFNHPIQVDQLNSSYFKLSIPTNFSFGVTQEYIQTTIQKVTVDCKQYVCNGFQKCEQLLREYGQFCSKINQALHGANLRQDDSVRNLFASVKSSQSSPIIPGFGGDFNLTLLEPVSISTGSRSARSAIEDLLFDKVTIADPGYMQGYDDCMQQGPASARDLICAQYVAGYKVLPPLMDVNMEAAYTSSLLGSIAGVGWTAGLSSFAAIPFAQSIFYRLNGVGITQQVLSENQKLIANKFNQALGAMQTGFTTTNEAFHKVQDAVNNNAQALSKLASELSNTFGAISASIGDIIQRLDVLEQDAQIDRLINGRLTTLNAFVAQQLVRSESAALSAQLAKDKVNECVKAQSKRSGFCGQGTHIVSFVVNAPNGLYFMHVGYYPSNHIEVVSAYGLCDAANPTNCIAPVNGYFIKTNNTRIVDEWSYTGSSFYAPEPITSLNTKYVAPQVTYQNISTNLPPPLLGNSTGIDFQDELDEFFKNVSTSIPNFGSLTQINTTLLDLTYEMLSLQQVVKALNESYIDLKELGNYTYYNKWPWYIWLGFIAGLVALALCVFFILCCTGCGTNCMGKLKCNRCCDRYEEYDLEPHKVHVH"}}, "note": "Where a SMILES comes first, the peptide text is derived from it."}
{"smiles": "CC[C@H](C)[C@H](NC(=O)[C@H](C)NC(=O)CNC(=O)[C@@H](N)CC(N)=O)C(=O)N[C@@H](CS)C(=O)N[C@@H](Cc1c[nH]c2ccccc12)C(=O)NCC(=O)N1CCC[C@H]1C(=O)N[C@@H](CS)C(=O)N1CCC[C@H]1C(=O)N[C@H](C(=O)N[C@@H](C)C(=O)N[C@@H](Cc1ccccc1)C(=O)N[C@@H](CCCNC(=N)N)C(=O)N[C@@H](CCC(N)=O)C(=O)N[C@H](C(=O)NCC(=O)N[C@@H](CC(N)=O)C(=O)N[C@@H](CS)C(=O)NCC(=O)N[C@@H](CCCNC(=N)N)C(=O)N[C@@H](Cc1ccccc1)C(=O)N[C@@H](CCCNC(=N)N)C(=O)N[C@H](C(=O)N[C@@H](CCCNC(=N)N)C(=O)N[C@@H](CS)C(=O)N[C@@H](CS)C(=O)N[C@@H](CCCNC(=N)N)C(=O)N[C@H](C(=O)N[C@@H](CCCNC(=N)N)C(=O)O)[C@@H](C)CC)C(C)C)[C@@H](C)CC)[C@@H](C)O", "note": "[P9R] (H-NGAICWGPCPTAFRQIGNCGRFRVRCCRIR-OH)", "values": [{"measurement": "inhibition of viral replication when added after SARS-CoV-2 infection", "setting": "SARS-CoV-2 [1]", "value": "could also significantly inhibit viral replication"}, {"measurement": "binding to H1N1 HA1 protein", "setting": "H1N1 HA1 protein", "value": "could also bind"}, {"measurement": "solubility", "setting": "physchem", "value": "> 5000", "unit": "µg/mL"}, {"measurement": "inhibition of viral replication, A(H7N9) virus", "setting": "A(H7N9) virus", "value": "> 20", "unit": "fold"}, {"measurement": "IC50 against parainfluenza virus 3", "setting": "parainfluenza virus 3", "value": "> 25.0", "unit": "µg/mL"}, {"measurement": "inhibition of viral replication, SARS-CoV", "setting": "SARS-CoV", "value": "more than 100 fold"}, {"measurement": "viral replication after 10,000-fold dilution of virus-peptide mixture", "setting": "H1N1 virus [2]", "value": "could significantly inhibit viral replication"}, {"measurement": "inhibition of viral replication, MERS-CoV", "setting": "MERS-CoV", "value": "more than 100 fold"}, {"measurement": "inhibition of endosomal acidification in live cells", "setting": "[3]", "value": "could more significantly inhibit endosomal acidification in live cells than that of P9"}, {"measurement": "antiviral activity when cells were pretreated before viral infection", "setting": "H1N1 virus [4]", "value": "did not show antiviral activity"}, {"measurement": "inhibition of viral replication, SARS-CoV-2", "setting": "SARS-CoV-2 [5]", "value": "more than 100 fold"}, {"measurement": "binding to SARS-CoV-2", "setting": "SARS-CoV-2 [6]", "value": "could efficiently bind"}, {"measurement": "effect on viral attachment", "setting": "H1N1 virus [7]", "value": "did not affect viral attachment"}, {"measurement": "inhibition of viral replication, rhinovirus", "setting": "rhinovirus [8]", "value": "> 20", "unit": "fold"}, {"measurement": "inhibition of virus–host endosomal acidification in infected live cells", "setting": "[9]", "value": "could efficiently inhibit"}, {"measurement": "IC50 against SARS-CoV-2", "setting": "SARS-CoV-2 [10]", "value": 0.9, "unit": "µg/mL"}, {"measurement": "binding to rhinovirus", "setting": "rhinovirus [11]", "value": "could also bind"}, {"measurement": "binding to MERS-CoV S protein", "setting": "MERS-CoV S protein", "value": "could also bind"}]}
{"smiles": "CO/C1=C\\C(C)=C\\[C@@H](C)[C@@H](O)[C@@H](C)C/C(C)=C/C=C/[C@H](OC)[C@@H]([C@@H](C)[C@@H](O)[C@H](C)[C@@]2(O)C[C@@H](O)[C@H](C)[C@@H](C(C)C)O2)OC1=O", "note": "[bafilomycin A1, reference compound]", "values": [{"measurement": "inhibition of virus–host endosomal acidification in infected live cells", "setting": "[9]", "value": "could efficiently inhibit"}]}
{"smiles": "CC[C@H](C)[C@H](NC(=O)[C@H](C)NC(=O)CNC(=O)[C@@H](N)CC(N)=O)C(=O)N[C@@H](CS)C(=O)N[C@@H](Cc1c[nH]c2ccccc12)C(=O)NCC(=O)N1CCC[C@H]1C(=O)N[C@@H](CS)C(=O)N1CCC[C@H]1C(=O)N[C@H](C(=O)N[C@@H](C)C(=O)N[C@@H](Cc1ccccc1)C(=O)N[C@@H](CCCNC(=N)N)C(=O)N[C@@H](CCC(N)=O)C(=O)N[C@H](C(=O)NCC(=O)N[C@@H](CC(N)=O)C(=O)N[C@@H](CS)C(=O)NCC(=O)N[C@@H](Cc1c[nH]cn1)C(=O)N[C@@H](Cc1ccccc1)C(=O)N[C@@H](CCCCN)C(=O)N[C@H](C(=O)N[C@@H](CCCNC(=N)N)C(=O)N[C@@H](CS)C(=O)N[C@@H](CS)C(=O)N[C@@H](CCCCN)C(=O)N[C@H](C(=O)N[C@@H](CCCNC(=N)N)C(=O)O)[C@@H](C)CC)C(C)C)[C@@H](C)CC)[C@@H](C)O", "note": "[P9, reference compound] (H-NGAICWGPCPTAFRQIGNCGHFKVRCCKIR-OH)", "values": [{"measurement": "IC50 against parainfluenza virus 3", "setting": "parainfluenza virus 3", "value": "> 25.0", "unit": "µg/mL"}, {"measurement": "IC50 against SARS-CoV-2", "setting": "SARS-CoV-2 [10]", "value": 2.4, "unit": "µg/mL"}]}
